Literature values in patent publication US20240016170A1, “A ZINC FORTIFIED TEA COMPOSITION” (EKATERRA TEA MANUFACTURING USA LLC, priority 2020, published 2024).

Conditions: water at 25° C.

For `[O]=[Zn]` [zinc oxide], the solubility is given as 0.0004 g/100 g water.
